Experimental data: patent publication US4067997A, “Synergistic microbecidal composition and method” (priority 1976, dated 1978)

Key:
Streptococcus mutans = experiment: MIC on mass basis (Example V procedure); type: cell-based, Streptococcus mutans (ATCC 10441)
Description: (§1) The essential procedure of Example I was followed with a series of phenolic compounds, with the exception that the test method was conducted on a mass (μg/ml) basis rather than a molecular (mol/ml) basis of the foregoing tests, since the long established phenol-coeffecient test is on a mass rather than molecular basis. Additionally, a different but closely related group of organisms were used in this test, in order to give a complete representative span on gram-negative, gram-positive and fungus organisms. Additionally, the phenolic derivatives chosen for test purposes include a number of derivatives which are presently accepted by the FDA as food-grade phenolic microbicides.
The same procedure of Example V was repeated but with combinations of mono-laurin (GML).
The procedure of Example V was repeated with combinations of glycerol mono-laurin (GML) and ethylenediamine tetraacetic acid (EDTA) as the calcium salt and in combination with BHA.

[1] = tested on: Streptococcus faecalis (Group D); experiment: MIC on mass basis (Example V procedure); type: cell-based
Description: as §1

Corynebacterium sp. = experiment: MIC on mass basis (Example V procedure); type: cell-based
Description: as §1

Streptococcus pyogenes = experiment: MIC on mass basis (Example V procedure); type: cell-based
Description: as §1

[2] = 60 minute reading, colony forming units (Examples VIII, X, XII); type: cell-based; conditions: Table 18; base line 2.2 × 10^6CFU
Description: The results of this experiment are recorded in the 60 minute reading.

CCCCCCCCCCCC(=O)OCC(O)CO (stereo not drawn) [GML, glycerol mono-laurin]
> 10,000 μg/ml: MIC of GML ([1]; Table 17, EDTA 0) | MIC of GML ([1]; Table 17, EDTA 125) | MIC of GML ([1]; Table 17, EDTA 250) | MIC of GML ([1]; Table 17, EDTA 500)
10: MIC (Corynebacterium sp.; Table 16, Corynebacterium sp., no unit in table) | MIC (Streptococcus pyogenes; Table 16, Streptococcus pyogenes, no unit in table)
9.7 × 10^5 CFU: 60 Minute Reading [2]
1,000 μg/ml: MIC of GML ([1]; Table 17, EDTA 1,000)
31.25 µg/mL: MIC (Streptococcus mutans; Table 13, Streptococcus mutans) | MIC (Streptococcus mutans; Table 14, Streptococcus mutans)
> 1,000: MIC ([1]; Table 16, Streptococcus faecalis (Group D), no unit in table)
< 10 µg/mL: MIC of GML ([1]; Table 17, EDTA 5,000) | MIC of GML ([1]; Table 17, EDTA 10,000) | MIC of GML (Corynebacterium sp.; Table 17, EDTA 0) | MIC of GML (Corynebacterium sp.; Table 17, EDTA 125) | MIC of GML (Corynebacterium sp.; Table 17, EDTA 250) | MIC of GML (Corynebacterium sp.; Table 17, EDTA 500) | MIC of GML (Corynebacterium sp.; Table 17, EDTA 1,000) | MIC of GML (Corynebacterium sp.; Table 17, EDTA 5,000) | MIC of GML (Corynebacterium sp.; Table 17, EDTA 10,000) | MIC of GML (Streptococcus pyogenes; Table 17, EDTA 0) | MIC of GML (Streptococcus pyogenes; Table 17, EDTA 125) | MIC of GML (Streptococcus pyogenes; Table 17, EDTA 250) | MIC of GML (Streptococcus pyogenes; Table 17, EDTA 500) | MIC of GML (Streptococcus pyogenes; Table 17, EDTA 1,000) | MIC of GML (Streptococcus pyogenes; Table 17, EDTA 5,000) | MIC of GML (Streptococcus pyogenes; Table 17, EDTA 10,000)
